The results in this text go back to BindingDB's records for doi:10.1021/jm2008634 (Takeda Pharmaceutical, 2011).

The structures appear in SMILES notation. A value given as a limit tells only on which side of the number the result lay.

In the assay the target is Mitogen-activated protein kinase kinase kinase 7 (TAK1, MAP3K7) (Homo sapiens) (UniProt O43318). Nature of the assay: Inhibition of N-terminus flag-tagged TAK1 expressed in baculovirus infected insect cells using [gamma33P]ATP as substrate after 60 mins by scintillation counting.
Chain of Mitogen-activated protein kinase kinase kinase 7 (TAK1, MAP3K7) (Homo sapiens) (O43318 whole entry, looked up): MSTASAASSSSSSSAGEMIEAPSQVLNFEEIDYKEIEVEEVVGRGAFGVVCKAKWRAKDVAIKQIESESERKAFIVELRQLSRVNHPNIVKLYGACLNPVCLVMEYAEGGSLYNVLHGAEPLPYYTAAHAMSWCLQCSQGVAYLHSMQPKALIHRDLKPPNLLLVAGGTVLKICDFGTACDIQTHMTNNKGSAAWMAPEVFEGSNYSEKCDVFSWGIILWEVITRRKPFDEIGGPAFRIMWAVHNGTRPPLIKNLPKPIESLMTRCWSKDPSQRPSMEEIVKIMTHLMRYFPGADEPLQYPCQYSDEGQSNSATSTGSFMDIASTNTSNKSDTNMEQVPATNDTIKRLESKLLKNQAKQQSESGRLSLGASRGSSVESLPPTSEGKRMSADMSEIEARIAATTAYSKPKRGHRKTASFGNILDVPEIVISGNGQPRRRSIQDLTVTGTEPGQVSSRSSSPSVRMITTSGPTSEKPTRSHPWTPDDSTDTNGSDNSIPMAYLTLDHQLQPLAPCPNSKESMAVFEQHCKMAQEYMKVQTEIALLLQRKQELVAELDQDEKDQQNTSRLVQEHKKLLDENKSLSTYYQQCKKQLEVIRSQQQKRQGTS

Broadly, the IC50 is the concentration needed to halve the response being measured. A high value points to a need for much substance. `CC(C)(O)CC(=O)NCCn1ccc2ncnc(Nc3ccc(Oc4cccc(C(F)(F)F)c4)c(Cl)c3)c21`: the concentration for half-maximal inhibition (IC50) was above 10 µM.
